| melting point [°C] | SMILES |
| --- | --- |
| 158 to 159 | CCOc1nc2c(nc1C(=O)Nc1nccs1)c(C)nn2CC |
| 230 to 233 | COC(=O)c1[nH]c2ccc(C)cc2c1Sc1ccc(Cl)cc1 |
| 135 to 139 | N#Cc1c(F)cc(OCc2ccncc2)cc1OC(C(=O)O)c1ccccc1Cl (racemic) |
| 180 to 181 | COc1ccc(Cn2cc3nc(Cl)nc(-c4c(F)cccc4OC)c3n2)cc1 |
| 87 to 89 | COC(=O)c1cccc(N2CC(C)=CC2=O)c1 |
| 45 to 47 | CCCc1cn(C)cc(-c2cccc(C(F)(F)F)c2)c1=O |
| 146 to 147 | O=S(=O)(c1ccccc1Cl)N1CCNc2ncc(I)cc21 |
| 184 to 186 | CCOC(=O)c1cn(C2CC2)c2nc(N3CCN(C(=O)OCC)CC3)c(F)cc2c1=O |
| 221 to 223 | COc1cccc([C@H]2O[C@H](CC(=O)NS(C)(=O)=O)C(=O)N(CC(C)(C)CO)c3ccc(Cl)cc32)c1OC |
| 209 to 210 | CCCCc1nc(Cl)c(C(=O)O)n1Cc1ccc2oc(-c3ccccc3-c3nnn[nH]3)cc2c1 |
| > 350 | O=c1[nH]c2cc(Cl)ccc2c(O)c1-c1cccc(F)c1 |
| 270 to 272 | Cc1cc(-c2nnc3c4ccccc4c(OCc4ncn(C)n4)nn23)on1 |
| > 200 | COc1cc(Nc2c(C#N)cnc3cc(C#Cc4cnn(CCN5CCOCC5)c4)sc23)c(Cl)cc1Cl |
| 180 to 182 | N#Cc1c(N2CCCCC2)cc(-c2ccc(F)cc2)c2c1-c1ccccc1C2=O |
| 127 to 128 | C=CCc1cc(C(=O)OCC)ccc1NC(C)=O |
| 169 to 172 | COC(=O)c1c2n(c(C)cc1=O)CCCC2 |

| melting point [°C] | SMILES |
| --- | --- |
| 157 to 161 | O=C(O)c1cc(Oc2cc(Cl)c(Cl)cc2Cl)ccc1[N+](=O)[O-] |
| 170 to 172 | Nc1ncnc2c1c(Br)cn2COC(O)CCO (centres undefined) |
| 156 | CC(C)c1cccc(C(C)C)c1NC(=O)NCC1(SCc2ccccc2)CCCCC1 |
| 136 to 140 | COc1cc(-c2ncnc(C)c2Cl)c(F)cc1Cl |
| 276 to 277 | CCOc1ccccc1C1=NC(=O)C2=NC=NC2=N1 |
| 67.2 to 69.8 | CCc1cc2c(cc1Cl)=CCc1cccnc1C=2C1CCN(C(=O)Cc2cccnc2)CC1 |
| 114 to 116 | CCCc1cc(Cl)c(OC(=S)N(C)C)c(C(C)=O)c1O |
| 175 | CSc1ccc(-c2nc(SC)ccc2-c2ccc(S(C)(=O)=O)cc2)cc1 |
| 294 to 296 | COc1cc(C)c(Cl)c2c(=O)oc3c(c12)C(=O)c1cccc(O)c1C3=O |
| 75 | O=C(NC(=NCCCOc1ccccc1)Oc1ccccc1)c1ccccc1 |
| > 250 | O=C(Nc1ccc(-c2c[nH]c(=O)cn2)cc1)c1cccc([N+](=O)[O-])c1 |
| 183 to 185 | Cn1c(=O)oc2cc([N+](=O)[O-])ccc21 |
| 105 to 107 | CS(=O)(=O)Oc1ccc(-c2sc3cc(OS(C)(=O)=O)ccc3c2C(=O)c2ccc(OCCBr)cc2)cc1 |
| 97 to 98 | CCC[C@H]1CC[C@H](C(=O)O)CC1 |
| 34 to 38 | C[Si](C)(C)OCCCc1c[nH]c2ccccc12 |

Continued, molecule first:

| SMILES | melting point [°C] |
| --- | --- |
| O=C(NCc1ccc(F)cc1)Nc1ccc(CN2C(=O)[C@H]3CCC[C@H]3N(C(=O)CCl)c3ccccc32)cc1 (relative stereo) | 202 to 203 |
| CCOC(=O)c1cn(CC)c2nc(N3CCN(C)CC3)ncc2c1=O | 146 to 147 |
| CCCCC[C@H]1CC[C@H](c2ccc(-c3ccc(CO)cc3)cc2)CC1 | 180 |
| CN(Cc1ccc([N+](=O)[O-])cc1)C1CCN(c2ccc(NS(C)(=O)=O)cc2)CC1 | 167 to 168 |
| CCO[C@@H]1c2ccc3c(nc(C)n3C)c2O[C@H](c2ccccc2)[C@H]1O | 222 |
| CCc1cccc2c1[nH]c1c2ccc2c(C=O)c[nH]c21 | > 250 |
| O=[N+]([O-])c1c(O)ccc2cc(-c3ccc(O)cc3)ccc12 | 199 to 201 |
| O=[N+]([O-])c1ccc(OCC#CC#CCOc2ccc([N+](=O)[O-])cc2[N+](=O)[O-])cc1 | 125 |
| O=C=Nc1ccc(OCc2nc(Cl)ccc2Cl)cc1 | 61.5 to 62.5 |
| CN1CCN(c2nn(S(=O)(=O)c3ccccc3)c3cc(Cl)ccc23)CC1 | 139 to 141 |
| O=[N+]([O-])c1cnn2c(-c3cccs3)ccnc12 | 235 to 237 |
| Cc1ccc(F)cc1C=S | 45 to 47 |
| CC(C)(C)CC(=O)Nc1cc(-c2ccnc3c(C(=O)c4cccs4)cnn23)ccc1F | 180 to 181 |
| CCOC(=O)C1=C(C)N=C(SCc2ccccc2)N(C(=O)OCC)C1c1ccccc1[N+](=O)[O-] (centres undefined) | 110 to 112 |
| CC(CSc1nc(-c2ccc(F)cc2)c(-c2ccc(F)cc2)[nH]1)Sc1nc(-c2ccc(F)cc2)c(-c2ccc(F)cc2)[nH]1 (centres undefined) | 243 to 245 |
| CC(=O)Nc1cccc(/C=C/C(=O)N2CC(CCl)c3ccc([N+](=O)[O-])cc32)c1 (centres undefined) | 229 to 230 |
| Cn1c(Cc2cccc(C(F)(F)F)c2)nc2c(-c3cccc(C(=O)O)c3)cccc21 | 175 to 177 |
| CN(C)c1ccc(C=NCCc2cccs2)cc1 | 76.8 to 77 |
| COc1ccc(-n2nc(Sc3ccc(Cl)c(Cl)c3)c(C)c(C#N)c2=O)cc1 | 168 to 171 |

| SMILES | melting point [°C] |
| --- | --- |
| Nc1sc(CC(=O)O)cc1C(=O)c1ccccc1Cl | 172 to 182 |
| O=C(NS(=O)(=O)c1cc(C(F)(F)F)ccc1Cl)c1cn2cc(C(F)(F)F)cnc2n1 | 211 to 212 |
| COC(COC(=O)C1=C(C)NC2=C(C(=O)CNC2)C1c1cccc(Cl)c1)c1ccccc1 (centres undefined) | 165 to 167 |
| O=C(O)c1cc2n(n1)CCC2 | 140 to 145 |
| CCC1CC2C3CC=C4CC(OC(C)=O)CCC4(C)C3CCC2(C)C1C(C)=O (centres undefined) | 115 |
| Cc1nc(C(=O)NN(C)C)c2n1-c1ccc(Cl)cc1C(c1ccccc1F)NC2 (centres undefined) | 218 to 219 |
| O=[N+]([O-])c1ccc(Oc2ccccc2Oc2ccc([N+](=O)[O-])cc2)cc1 | 134 to 135 |
| CC1CN(c2c(F)cc3c(=O)c(C(=O)O)cn(C(C)C)c3c2F)CCN1 (centres undefined) | 217 to 218 |
| CN[C@@H]1Cc2cccc3[nH]c(=S)n(c23)C1 | 210 to 213 |
| Nc1cc(-n2cc(C(=O)O)c(=O)c3cc(F)c(Cl)nc32)c(F)cc1F | > 270 |
| CNC1CN(c2c(F)cc3c(=O)c(C(=O)O)cn(C4CC4)c3c2F)C1 | 270 to 272 |
| CCOC(=O)c1cc([N+](=O)[O-])c(Cl)c(S(N)(=O)=O)c1 | 154 |
| CCOc1ccc(/C=C/c2cc(OC)cc(OC)c2)cc1 | 54 to 55 |
| CCCCCOc1cc(-n2c(=O)cc(C(F)(F)F)n(C)c2=O)c(F)cc1Cl | 64 to 66 |
| COc1ccc(-c2sc3c(c2C)c(=O)c(CO)cn3Cc2ccccc2F)cc1 | 159 to 160 |
| N#Cc1ccc(OCC(O)CN2CCSCC2)cc1 (centres undefined) | 94 to 95 |
| CCCCc1nc2ccccn2c(=O)c1-c1ccc(NC2CCN(C(=O)OC(C)(C)C)C2)cc1 (centres undefined) | 116 to 118 |
| CC12CCC(=O)C=C1CCC(=Cc1ccccc1)C2=O (centres undefined) | 88 |
| COc1ccc(-c2coc3cc(OCC(O)CN4CCOCC4)ccc3c2=O)cc1OC (centres undefined) | 135 to 136 |

From a melting point compilation (Tetko et al.; mined from patent text by program, amines drawn as free bases though some values may be those of a salt)
